How the values were obtained:
[1] = Photophysical properties (excitation/emission wavelength, absolute quantum yield, fluorescence intensity in PBS); type: physicochemical; conditions: for Φ (quantum yield): absolute quantum yield
Method: All reactions were carried out under an atmosphere of nitrogen or argon in air-dried glassware with magnetic stirring. Air- and/or moisture-sensitive liquids were transferred with syringe. Organic solutions were concentrated by rotary evaporation at 25-60° C. at 15-30 torr. All solvents and common materials were purchased from suppliers and used without further purification. Column chromatography was carried out as “Flash Chromatography” using Biotage MPLC machine. ^1H NMR and ^13C NMR data were recorded on an JEOL ECZ-600R Magnetic Resonance System (600 MHz) in Ajou University. Recorded shifts are reported in parts per million (6): Chemical shift, multiplicity (s=singlet, d=doublet, t=triplet, q=quartet, m=multiplet, br=broad), coupling constant (J, Hz) and integration. Low resolution mass spectrometry (LRMS) was obtained by LC/MS system, Finnigan MSQplus Surveyer (Thermo Scientific) or 6120 Quadrupole LC/MS (Agilent Technologies). The progress of reaction was monitored using thin layer chromatography (TLC) (silica gel 60, F254 0.25 mm), and components were visualized by observation under UV light (254 and 365 nm) or by treating the TLC plates with Phosphonolybdic acid (PMA), KMnO4, or ninhydrin followed by heating. Cell culture reagents including fatal bovine serum, culture media, and antibiotic-antimycotic solution were purchased from GIBCO. MitoTracker Green, and Hoechst were purchased from Invitrogen. The culture dish and glassbottom dish were purchased from CORNING, and SPL. All spectra experiments were performed in a 1×1 cm quartz cuvette. Fluorescence emission spectra were recorded on JASCO FP-8200 spectrofluorometer, and UV absorption spectra were recorded on JASCO V-670 spectrophotometer. Absolute quantum yield was measured by QE-2000 (Otsuka Electronics).

[2] = tested on: mitochondria in HeLa cells; assay: Colocalization test of SiR-Mito probes with MitoTracker green in HeLa cells; type: cell-based, human; conditions: 1 μM probe, 1 h; for Mitochondria Targeting (Pearson coefficient for colocalization with MitoTracker green): 0.5 μM MitoTracker green
Method: HeLa cells were incubated with cell culture media containing 1 μM SiR-Mito probe, and 0.5 μM MitoTracker green. After 1 h, HeLa cells were washed three times with 1×PBS for and observed with a LEICA DMi8 fluorescent microscope. Each experiment was observed using 512-542 nm emitter for FITC channel (for MitoTracker Green), and 663-738 nm exciter, 545-625 nm emitter for Cy5 channel (for SiR-Mito probes). Scale bar: 50 μm.
HeLa human cervical cancer cells were cultured in Dulbecco's modified eagle media (DMEM, GIBCO) containing 10% fetal bovine serum (FBS, GIBCO) and 1% penicillin (GIBCO) at 37° C. in a humidified incubator with 5% CO2. For the fluorescence microscope imaging, cells were harvested using TrypLE™ Express (GIBCO) and resuspended in fresh culture medium. Harvested cells with a density of 4.0×10^3 cells/well were seeded on a HeLa 96 black well plate (CORNING) and incubated for 24 h. Cells were incubated with SiR-Mito probes (1 μM) and MitoTracker Green (0.5 μM) for 60 min. After the incubation, cells were washed with 1×PBS for three times and observed with inverted fluorescence microscope (DMi8, LEICA). Each experiment was observed using a 325-375 nm exciter, 435-485 nm emitter for DAPI channel, 460-500 nm exciter, 512-542 nm emitter for FITC channel, 541-551 nm exciter, 565-605 nm emitter for Rhodamine channel, and 663-738 nm exciter, 545-625 nm emitter for Cy5 channel.
To determine the effect of probe hydrophobicity on the efficiency of targeting to mitochondria, the Pearson coefficient for colocalization of SiR-Mito probes and MitoTracker green, a commercial fluorescent mitochondrial bioprobe, was measured (FIG. 1). For the colocalization test, human cervical cancer HeLa cells were seeded on 96-well plates and incubated for 1 h with 1 μM of each different SiR-Mito probe and 0.5 μM MitoTracker green, washed briefly with 1×PBS, and imaged with a LEICA DMi8 fluorescent microscope using the 40× objective.

N-(10-(5-((cyclohexylmethyl) carbamoyl)-2-methylphenyl)-7 (dimethylamino)-5,5-dimethyldibenzo[b,e]silin-3(5H)-ylidene)-N-methylmethanaminium [SiR-Mito 5]
Em (emission wavelength) [1]: 669 nm
Ex (excitation wavelength) [1]: 651 nm
Φ (quantum yield) [1]: 0.29
Mitochondria Targeting (Pearson coefficient for colocalization with MitoTracker green) [2]: * (* 0.7 ≤ R < 0.8)

CCCCNC(=O)c1ccc(C)c(C2=C3C=CC(=[N+](C)C)C=C3[Si](C)(C)c3cc(N(C)C)ccc32)c1 [SiR-Mito 3, N-(10-(5-(butylcarbamoyl)-2-methylphenyl)-7-(dimethylamino)-5,5-dimethyldibenzo[b,e]silin-3(5H)-ylidene)-N-methylmethanaminium]
Em (emission wavelength) [1]: 665 nm
Ex (excitation wavelength) [1]: 652 nm
Φ (quantum yield) [1]: 0.29

Cc1ccc(C(=O)NCCc2ccccc2)cc1C1=C2C=CC(=[N+](C)C)C=C2[Si](C)(C)c2cc(N(C)C)ccc21 [SiR-Mito 6, N-(7-(dimethylamino)-5,5-dimethyl-10-(2-methyl-5-(phenethylcabamoyl)phenyl)dibenzo[b,e]silin-3(5H)-ylidene)-N-methylmethanaminium]
Em (emission wavelength) [1]: 668 nm
Ex (excitation wavelength) [1]: 651 nm
Φ (quantum yield) [1]: 0.30
Mitochondria Targeting (Pearson coefficient for colocalization with MitoTracker green) [2]: *** (*** 0.9 ≤ R)

CCCCCCC(C)NC(=O)c1ccc(C)c(C2=C3C=CC(=[N+](C)C)C=C3[Si](C)(C)c3cc(N(C)C)ccc32)c1 (centres unmarked) [SiR-Mito 10, N-(7-(dimethylamino)-5,5-dimethyl-10-(2-methyl-5-(octan-2-ylcarbamoyl)phenyl)dibenzo[b,e]silin-3(5H)-ylidene)-N-methylmethanaminium]
Em (emission wavelength) [1]: 667 nm
Ex (excitation wavelength) [1]: 654 nm
Φ (quantum yield) [1]: 0.27
Mitochondria Targeting (Pearson coefficient for colocalization with MitoTracker green) [2]: *** (*** 0.9 ≤ R)

Cc1ccc(C(=O)NCCO)cc1C1=C2C=CC(=[N+](C)C)C=C2[Si](C)(C)c2cc(N(C)C)ccc21 [SiR-Mito 1, N-(7-(dimethylamino)-10-(5-((2-hydroxyethyl)carbamoyl)-2-methylphenyl)-5,5-dimethyldibenzo[b,e]silin-3(5H)-ylidene)-N-methylmethanaminium]
Em (emission wavelength) [1]: 668 nm
Ex (excitation wavelength) [1]: 661 nm
Φ (quantum yield) [1]: 0.32
Intracellular fluorescence (SiR channel) [2]: absence of fluorescence signal

Cc1ccc(C(=O)NCc2ccccc2)cc1C1=C2C=CC(=[N+](C)C)C=C2[Si](C)(C)c2cc(N(C)C)ccc21 [SiR-Mito 4, N-(10-(5-(benzylcarbamoyl)-2-methylphenyl)-7-(dimethylamino)-5,5-dimethyldibenzo[b,e]silin-3(5H)-ylidene)-N-methylmethanaminium]
Em (emission wavelength) [1]: 666 nm
Ex (excitation wavelength) [1]: 651 nm
Φ (quantum yield) [1]: 0.30
Mitochondria Targeting (Pearson coefficient for colocalization with MitoTracker green) [2]: * (* 0.7 ≤ R < 0.8)

Cc1ccc(C(=O)NC(C)(C)CC(C)(C)C)cc1C1=C2C=CC(=[N+](C)C)C=C2[Si](C)(C)c2cc(N(C)C)ccc21 [SiR-Mito 7, N-(7-(dimethylamino)-5,5-dimethyl-10-(2-methyl-5-((2,4,4-trimethylpentan-2-yl)carbamoyl)phenyl)dibenzo[b,e]silin-3(5H)-ylidene)-N-methylmethanaminium]
Em (emission wavelength) [1]: 667 nm
Ex (excitation wavelength) [1]: 650 nm
Φ (quantum yield) [1]: 0.29
Mitochondria Targeting (Pearson coefficient for colocalization with MitoTracker green) [2]: *** (*** 0.9 ≤ R)

Cc1ccc(C(=O)NCCC2CCCCC2)cc1C1=C2C=CC(=[N+](C)C)C=C2[Si](C)(C)c2cc(N(C)C)ccc21 [SiR-Mito 9, N-(10-(5-((2-cyclohexylethyl)carbamoyl)-2-methylphenyl)-7-(dimethylamino)-5,5-dimethyldibenzo[b,e]silin-3(5H)-ylidene)-N-methylmethanaminium]
Em (emission wavelength) [1]: 666 nm
Ex (excitation wavelength) [1]: 652 nm
Φ (quantum yield) [1]: 0.26
Mitochondria Targeting (Pearson coefficient for colocalization with MitoTracker green) [2]: *** (*** 0.9 ≤ R)

CCNC(=O)c1ccc(C)c(C2=C3C=CC(=[N+](C)C)C=C3[Si](C)(C)c3cc(N(C)C)ccc32)c1 [SiR-Mito 2, N-(7-(dimethylamino)-10-(5-(ethylcarbamoyl)-2-methylphenyl)-5,5-dimethyldibenzo[b,e]silin-3(5H)-ylidene)-N-methylmethanaminium]
Em (emission wavelength) [1]: 668 nm
Ex (excitation wavelength) [1]: 662 nm
Φ (quantum yield) [1]: 0.40
Mitochondria Targeting (Pearson coefficient for colocalization with MitoTracker green) [2]: * (* 0.7 ≤ R < 0.8)
